In patent US9550811B2, “Peptide scaffold design” (BIONOR IMMUNO AS, priority 2010, dated 2017):

Key:
Assay in all cases: REVEAL binding assay
Conditions in all cases: score as percentage of the signal generated by the positive control peptide
HLA-B15 = tested on: HLA-B15
HLA-B40 = tested on: HLA-B40
Description: (§1) Binding properties to HLA for the ninemers listed in table 6 were tested for the following HLA-classes:
(§2) HLA-A1, HLA-A2, HLA-A3, HLA-A11, HLA-A24, HLA-A29, HLA-B7, HLA-B8, HLA-B14, HLA-B15, HLA-B27, HLA-B35, HLA-B40.
The peptides were synthesized as a Prospector PEPscreen®: Custom Peptide Library. Peptides 8-15 amino acids in length were synthesized in 0.5-2 mg quantities with high average purity. Quality control by MALDI-TOF Mass Spectrometry was carried out on 100% of samples.
The REVEAL™ binding assay determined the ability of each candidate peptide to bind to one or more MHC class I alleles and stabilizing the MHC-peptide complex. By comparing the binding to that of high and intermediate affinity T cell epitopes, the most likely immunogenic peptides in a protein sequence can be identified. Detection is based on the presence or absence of the native conformation of the MHC-peptide complex. Each peptide is given a score relative to the positive control peptide, which is a known T cell epitope. The score of the test peptide is reported quantitatively as a percentage of the signal generated by the positive control peptide, and the peptide is indicated as having a putative pass or fail result. Assay performance is confirmed by including an intermediate control peptide that is known to bind with weaker affinity to the allele under investigation.

HLA-A1 = tested on: HLA-A1
HLA-B7 = HLA-B7 (Homo sapiens, UniProt P01889)
Description: as §1, §2
(§3) The peptides were synthesized as a Prospector PEPscreen®: Custom Peptide Library. […] Quality control by MALDI-TOF Mass Spectrometry was carried out on 100% of samples.
(§4) The REVEAL™ binding assay determined the ability of each candidate peptide to bind to one or more MHC class I alleles and stabilizing the MHC-peptide complex. By comparing the binding to that of high and intermediate affinity T cell epitopes, the most likely immunogenic peptides in a protein sequence can be identified. Detection is based on the presence or absence of the native conformation of the MHC-peptide complex. Each peptide is given a score relative to the positive control peptide, which is a known T cell epitope.

HLA-A2 = HLA-A2 (Homo sapiens, UniProt P04439, D140Y/D185E/D98H/E176V/E277Q/G131W/G231S/I119V/I121R/I166T/I218V/N151K/N90K/P208A/P217A/Q86G/Q94H/R138H/R169H)
Description: as §1, §2, §3, §4

HLA-B27 = HLA-B27 (Homo sapiens, UniProt P01889, D138H/D201E/E176V/E204Q/G107R/H137Y/K202T/N104T/N87E/Q56L/Q94K/R106L/R155S/R180L/S101D/S121N/S48T/Y140D/Y33H/Y91C)
Description: as §1, §2, §3, §4

HLA-A3 = HLA-A3 (Homo sapiens, UniProt P04439)
Description: as §1, §2, §3, §4

HLA-A11 = HLA-A11 (Homo sapiens, UniProt P04439, A114D/F33Y/S129P)
Description: as §1, §2, §3, §4

HLA-A24 = tested on: HLA-A24
HLA-B14 = tested on: HLA-B14
HLA-B35 = tested on: HLA-B35
Description: The REVEAL™ binding assay determined the ability of each candidate peptide to bind to one or more MHC class I alleles and stabilizing the MHC-peptide complex. […] Detection is based on the presence or absence of the native conformation of the MHC-peptide complex. Each peptide is given a score relative to the positive control peptide, which is a known T cell epitope.

HLA-A29 = tested on: HLA-A29
HLA-B8 = tested on: HLA-B8

HLA-B7, sequence (P61769 21-119): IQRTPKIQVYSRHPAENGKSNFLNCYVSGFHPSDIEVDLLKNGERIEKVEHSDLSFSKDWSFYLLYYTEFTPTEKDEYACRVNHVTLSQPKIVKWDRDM
HLA-B7, sequence (P01889 25-299): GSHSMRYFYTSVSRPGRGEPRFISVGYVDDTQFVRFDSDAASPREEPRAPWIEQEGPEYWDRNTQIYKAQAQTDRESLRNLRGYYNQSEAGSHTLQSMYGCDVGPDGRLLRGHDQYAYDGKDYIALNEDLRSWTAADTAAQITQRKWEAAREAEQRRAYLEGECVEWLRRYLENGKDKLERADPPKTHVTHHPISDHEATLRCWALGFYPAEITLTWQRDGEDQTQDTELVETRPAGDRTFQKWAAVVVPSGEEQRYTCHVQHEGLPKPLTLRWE
HLA-A3, sequence (P04439 25-299): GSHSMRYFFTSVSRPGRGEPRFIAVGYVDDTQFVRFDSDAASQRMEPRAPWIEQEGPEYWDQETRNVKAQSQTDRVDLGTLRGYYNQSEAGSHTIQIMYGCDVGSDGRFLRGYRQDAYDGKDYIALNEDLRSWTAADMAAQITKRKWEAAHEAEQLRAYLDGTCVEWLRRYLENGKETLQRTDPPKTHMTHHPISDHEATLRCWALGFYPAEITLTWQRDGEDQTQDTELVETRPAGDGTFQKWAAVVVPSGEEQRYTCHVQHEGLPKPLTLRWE
HLA-A3, sequence (P61769 21-119, further chain): as the sequence (P61769 21-119) above

Row | Sequence | REVEAL binding score, HLA-type B15 (HLA-B15) [%] | REVEAL binding score, HLA-type B40 (HLA-B40) [%] | REVEAL binding score, HLA-type A1 (HLA-A1) [%] | REVEAL binding score, HLA-type B7 (HLA-B7) [%] | REVEAL binding score, HLA-type A2 (HLA-A2) [%] | REVEAL binding score, HLA-type B27 (HLA-B27) [%] | REVEAL binding score, HLA-type A3 (HLA-A3) [%] | REVEAL binding score, HLA-type A11 (HLA-A11) [%] | REVEAL binding score, HLA-type A24 (HLA-A24) [%] | REVEAL binding score, HLA-type B14 (HLA-B14) [%] | REVEAL binding score, HLA-type B35 (HLA-B35) [%] | REVEAL binding score, HLA-type A29 (HLA-A29) [%] | REVEAL binding score, HLA-type B8 (HLA-B8) [%]
1 | RVIETLTSG | 37.99 | 32.30 | 11.61 | 0.50 | 9.82 | 2.32 | 2.23 | 3.25 | 0.96 | 0.11 | 1.90 | 15.52 | 11.83
2 | GKVIDTLTC | 7.31 | 19.45 | 14.77 | 0.25 | 4.89 | 0.84 | 3.69 | 3.96 | 0.41 | 0.16 | 3.11 | 14.26 | 13.63
3 | ADLMGYIPL | 8.30 | 26.33 | 31.05 | 0.73 | 8.06 | 1.01 | 1.93 | 3.35 | 0.61 | 0.13 | 2.08 | 14.51 | 11.40
4 | VTGNIPGST | 5.15 | 130.97 | 16.18 | 2.24 | 8.44 | 1.58 | 2.52 | 4.85 | 1.60 | 0.75 | 4.00 | 15.05 | 13.12
5 | VIRVIAHGL | 9.64 | 52.64 | 18.66 | 29.93 | 8.60 | 1.16 | 4.29 | 4.54 | 0.28 | 0.55 | 2.51 | 27.12 | 32.81
6 | ATGNLPGCS | 3.81 | 90.48 | 7.13 | 1.12 | 4.62 | 2.56 | 3.64 | 2.54 | 0.64 | 0.87 | 7.00 | 22.84 | 10.73
7 | RNLGRVIET | 8.84 | 27.57 | 15.93 | 0.71 | 5.96 | 0.91 | 5.52 | 13.68 | 0.51 | 0.26 | 2.34 | 15.13 | 15.51
